Data published in patent publication US8415479B2, “Inhibitor of plasminogen activator inhibitor-1” (Renascience Co., Ltd., priority 2008, dated 2013).

Legend:
PAI-1 [1] = biological target: T1, PAI-1 (Homo sapiens, UniProt P05121); test: Measurement of PAI-1 inhibitory activity (t-PA / chromogenic substrate S-2288); conditions: statement in words referring to the test example (compound at 20 μM or 50 μM); numeric PAI-1 activities (%) only in FIGS. 1 to 7
Method: The change in PAI-1 activity can be examined by setting, as an index, a reaction product produced by the action of t-PA on a substrate. […] It can be judged that when the amount of reaction product is larger, the PAI-1 inhibitory action is higher.
More specifically, human-derived PAI-1 was added to a 0.1% Tween 80-containing 100 mM Tris-HCl (pH 8) solution containing each of the above compounds in a given concentration (20 μM or 50 μM), and incubated at 37° C. for 15 minutes. Subsequently, human-derived tissue plasminogen activator (t-PA) (manufactured by American Diagnostica, Inc. (USA); the same applies hereinafter) adjusted to 0.3 pmol/μL, was added thereto, and further incubated at 37° C. for 15 minutes.

PAI-1 [2] = biological target: T1, PAI-1; test: Reference Test Example (2) evaluation of fibrinolytic action (fibrin plate, mixture of PAI-1, t-PA and test compound); format: biochemical; design: purchased Molecular Innovations Inc. (USA); conditions: room temperature, 18 hours
Method: The compounds a and b were evaluated for fibrinolytic action in accordance with the document (Matsuo, O. et al., Haemostasis, 16, 43-50 (1986)).
More specifically, an aqueous solution (containing 25 mM barbital-sodium, 50 mM NaCl, and 25 mM CaCl2) containing a concentration of 1.5 mg/mL of fibrinogen (produced by Organon Teknica) was added, on a 9 cm-plate, to thrombin dissolved in 0.2 mL of physiological saline (10NIH U/mL: produced by Mochida Pharmaceutical Co., Ltd.), and the mixture was allowed to stand at room temperature for 2 hours. Using this mixture, fibrinolysis assay was conducted.
Namely, a mixture of PAI-1, t-PA, and each of the test compounds was dropped onto the plate and incubated at room temperature for 18 hours. After the incubation, fibrinolysis due to plasminogen activation was measured from the lysis area on the plate.

PAI-1 [3] = biological target: T1, PAI-1; test: Reference Test Example (1) PAI-1 inhibitory activity assay (t-PA / S-2288); format: biochemical; design: purchased Molecular Innovation(s) Inc. (USA); conditions: concentrations of 35 μM and 50 μM; FIG. 8
Method: P-nitranilide removed from the chromogenic substrate (S-2288) by t-PA action was measured using a spectrophotometer at an absorbance of 405 nm at 5-minute intervals for 30 minutes.
Comparative tests were carried out in the same manner using, in place of the above test compounds, a compound (tiplaxtinin) of the formula below used as an antithrombotic drug in US clinical trials (provided that the given concentrations were 20, 35, and 50 μM).
FIGS. 8 (A), (B), and (C) each show PAI-1 activity (%) when the compound a (concentrations: 20, 35, and 50 μM), the compound b (concentrations: 20, 35, and 50 μM), and tiplaxtinin (comparative compound) (concentrations: 20, 35, and 50 μM) are added, respectively.

[4] = test system: mouse model with pulmonary fibrosis artificially induced by bleomycin; test: Reference Test Example (3) effects on bleomycin-induced pulmonary fibrosis; format: in vivo, C57BL/6 mouse; conditions: scored from 0 to 8 (method of Ashcort et al.); bleomycin + compound b 200 mg/kg p.o. twice/day for 14 days; FIG. 9
Method: A C57BL/6 mouse (male, body weight: 19 to 21 g) was intraperitoneally anesthetized with pentobarbital, and an incision was made on the cervical organ. Ten mice were used as controls. The control mice (n=10) were endotracheally administered bleomycin (produced by Nippon Kayaku Co., Ltd.) (1.5 U/kg) lysed in physiological saline, twice a day for 14 days. On the other hand, the test mice were subjected to forcible oral administration with the compound b (200 mg/kg), suspended in a 0.5% carboxymethyl cellulose aqueous solution, twice a day for 14 days, in addition to the above endotracheal administration. Then, the lung tissues taken from these control mice and the test mice were analyzed, and further assayed for hydroxyproline levels. The hydroxyproline levels in the lung tissues were assayed in terms of the level in the hydrolysate of the lung tissues as described in the method of Kivirikko et al. (Anal. Biochem. 19, 249-255 (1967)). The levels (severity) of pulmonary fibrosis were scored from 0 to 8, based on the method of Ashcort et al. (J. Clin. Pathol. 41, 467-470 (1988)). Further, the control mice and the test mice were assayed for plasma PAI-1 activity (ng/mL).

T1 sequence (P05121 24-402): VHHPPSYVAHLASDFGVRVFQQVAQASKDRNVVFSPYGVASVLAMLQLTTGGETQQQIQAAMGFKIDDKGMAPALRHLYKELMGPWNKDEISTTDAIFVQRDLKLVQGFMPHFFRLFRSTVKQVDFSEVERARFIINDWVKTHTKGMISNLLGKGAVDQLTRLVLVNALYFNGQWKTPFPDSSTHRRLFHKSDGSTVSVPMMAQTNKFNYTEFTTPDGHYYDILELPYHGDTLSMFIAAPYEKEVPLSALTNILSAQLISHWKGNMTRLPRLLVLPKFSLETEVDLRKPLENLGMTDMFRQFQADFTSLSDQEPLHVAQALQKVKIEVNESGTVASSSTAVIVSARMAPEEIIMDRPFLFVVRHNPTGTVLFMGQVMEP

SMILES | inhibitory action on PAI-1 activity (PAI-1 [1]) | other results
O=C(COCC(=O)Nc1ccc(Cl)cc1C(=O)O)Nc1ccc(-c2ccoc2)cc1 [Compound 64, 5-chloro-2-([(2-([4-(furan-3-yl)phenyl]amino)-2-oxoethoxy)acetyl]amino)benzoic acid] | excellent inhibitory action on PAI-1 activity | –
O=C(COCC(=O)N(c1ccccc1)C1CCCCC1)Nc1ccc(Cl)cc1C(=O)[O-].[Na+] [Compound 15, 5-chloro-2-[((2-[cyclohexyl(phenyl)amino]-2-oxoethoxy)acetyl)amino]benzoic acid.sodium salt] | excellent inhibitory action on PAI-1 activity | –
CC(=O)Nc1ccc(-c2ccc(C)c(NC(=O)COCC(=O)Nc3ccc(Cl)cc3C(=O)O)c2)cc1 [Compound 44, 2-([(2-([4′-(acetylamino)-4-methylbiphenyl-3-yl]amino)-2-oxoethoxy)acetyl]amino)-5-chlorobenzoic acid] | excellent inhibitory action on PAI-1 activity | –
CCC(CC(=O)Nc1scc(-c2ccccc2)c1C(=O)O)C(=O)Nc1scc(-c2ccccc2)c1C(=O)O (centres unmarked) [compound a, 2-[3-(3′-carboxy-4′-phenylthiophen-2′-ylcarbamoyl)-pentanoylamino]-4-phenylthiophen-3-carboxylic acid] | – | fibrinolytic action (lysis area on fibrin plate) (PAI-1 [2]): inhibit fibrinolysis suppression caused by PAI-1; PAI-1 activity inhibitory action compared with tiplaxtinin (PAI-1 [3]): higher PAI-1 activity inhibitory action at concentrations of 35 μM and 50 μM than tiplaxtinin
O=C(COCC(=O)Nc1ccc(Cl)cc1C(=O)O)Nc1cccc(-c2ccncc2)c1 [Compound 2, 5-chloro-2-([(2-oxo-2-([3-(pyridin-4-yl)phenyl]amino)ethoxy)acetyl]amino)benzoic acid] | excellent inhibitory action on PAI-1 activity | –
Cc1ccc(-c2ccc(F)cc2)cc1NC(=O)C(=O)Nc1ccc(Cl)cc1C(=O)[O-].[Na+] [Compound 20, 5-chloro-2-(([(4′-fluoro-4-methylbiphenyl-3-yl)amino](oxo)acetyl)amino)benzoic acid.sodium salt] | excellent inhibitory action on PAI-1 activity | –
O=C(COCC(=O)Nc1ccc(Cl)cc1C(=O)O)Nc1ccc(-c2ccncc2)cc1 [Compound 1, 5-chloro-2-([(2-oxo-2-([4-(pyridin-4-yl)phenyl]amino)ethoxy)acetyl]amino)benzoic acid] | excellent inhibitory action on PAI-1 activity | –
O=C(COCC(=O)NC1CCCCCCCCCCC1)Nc1ccc(Cl)cc1C(=O)O [Compound 11, 5-chloro-2-(([2-(cyclododecylamino)-2-oxoethoxy]acetyl)amino)benzoic acid] | excellent inhibitory action on PAI-1 activity | –
O=C(COCC(=O)Nc1ccc(Cl)cc1C(=O)O)Nc1cccc(Cc2ccoc2)c1 [Compound 55, 5-chloro-2-([(2-([3-(furan-3-ylmethyl)phenyl]amino)-2-oxoethoxy)acetyl]amino)benzoic acid] | excellent inhibitory action on PAI-1 activity | –
CCC(CC(=O)Nc1scc(-c2cccs2)c1C(=O)O)C(=O)Nc1scc(-c2cccs2)c1C(=O)O (centres unmarked) [compound b, 2-[3-(3′-carboxy-4′-thienylthiophen-2′-ylcarbamoyl)-pentanoylamino]-4-thienylthiophen-3-carboxylic acid] | – | fibrosis score [4]: 2.9±0.42; fibrinolytic action (lysis area on fibrin plate) (PAI-1 [2]): inhibit fibrinolysis suppression caused by PAI-1; PAI-1 activity inhibitory action compared with tiplaxtinin (PAI-1 [3]): higher PAI-1 activity inhibitory action at concentrations of 35 μM and 50 μM than tiplaxtinin
O=C(COCC(=O)Nc1ccc(Cl)cc1C(=O)O)Nc1cccc(-c2cccs2)c1 [Compound 63, 5-chloro-2-([(2-oxo-2-([3-(thiophen-2-yl)phenyl]amino)ethoxy)acetyl]amino)benzoic acid] | excellent inhibitory action on PAI-1 activity | –
